{"source": "paper PMC6934184", "about": "“Selective DNA-PKcs inhibition extends the therapeutic index of localized radiotherapy and chemotherapy” (The Journal of Clinical Investigation, 2019)", "target": "T1, LCK (Homo sapiens, UniProt P06239)", "T1 construct": "purchased Thermo Fisher Scientific (Life Technologies) SelectScreen", "T1 sequence (P06239 whole entry)": "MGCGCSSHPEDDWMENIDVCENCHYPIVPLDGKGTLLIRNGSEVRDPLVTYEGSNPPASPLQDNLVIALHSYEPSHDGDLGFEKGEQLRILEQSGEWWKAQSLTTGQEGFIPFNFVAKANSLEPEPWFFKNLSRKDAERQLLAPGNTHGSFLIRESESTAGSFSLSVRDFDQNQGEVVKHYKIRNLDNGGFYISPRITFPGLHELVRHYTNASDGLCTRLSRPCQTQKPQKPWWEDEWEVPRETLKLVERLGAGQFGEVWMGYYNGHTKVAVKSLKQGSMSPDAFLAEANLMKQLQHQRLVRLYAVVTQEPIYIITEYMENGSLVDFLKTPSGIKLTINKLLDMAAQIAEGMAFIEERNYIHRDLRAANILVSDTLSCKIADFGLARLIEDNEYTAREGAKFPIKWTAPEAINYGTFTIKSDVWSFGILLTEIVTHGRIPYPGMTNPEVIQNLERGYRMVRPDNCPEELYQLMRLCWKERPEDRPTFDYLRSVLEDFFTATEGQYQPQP", "assay": "SelectScreen Z'LYTE", "type": "biochemical", "method_in_brief": "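SelectScreen broad panel; activity (Z'LYTE, Adapta) plus binding formats. ATP: Km app for CSF1R Z'LYTE; 10 for CAMK1 Adapta. Readout = % per kinase.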"}
{"smiles": "CN(C(=O)CN1CCOCC1)c1ccc2sc3c(-c4cccc5c(=O)cc(N6CC7CCC(C6)O7)oc45)cccc3c2c1", "note": "[NU5455]", "values": [{"measurement": "inhibition at 1 µM", "result": 9.6, "unit": "%"}]}
